Reference: PubChem BioAssay (NCI)
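Cultured in 96-well plates, cells were exposed to test compound for 48 hours across five concentrations. GI50 is the concentration that inhibits growth by half. TGI: concentration producing complete growth inhibition.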 Where a SMILES comes first, the peptide text is derived from it. The star is where a group is joined. Fmoc = O=C(OCC1c2ccccc2-c2ccccc21)*; Boc = CC(C)(C)OC(=O)*

Columns and labels:
Test in all cases: NCI tumour cell line growth inhibition, 48 h
MOLT-4 leukemia = tested on: MOLT-4 leukemia
A549 NSCLC = tested on: A549 NSCLC
OVCAR-8 ovarian = tested on: OVCAR-8 ovarian
SNB-19 CNS = tested on: SNB-19 CNS
UO-31 renal = tested on: UO-31 renal
MCF7 breast = tested on: MCF7 breast
IGROV1 ovarian = tested on: IGROV1 ovarian
SF-539 CNS = tested on: SF-539 CNS
HOP-62 NSCLC = tested on: HOP-62 NSCLC
A498 renal = tested on: A498 renal

| SMILES | TGI (MOLT-4 leukemia) [µM] | TGI (A549 NSCLC) [µM] | TGI (OVCAR-8 ovarian) [µM] | TGI (SNB-19 CNS) [µM] | TGI (UO-31 renal) [µM] | TGI (MCF7 breast) [µM] | TGI (IGROV1 ovarian) [µM] | TGI (SF-539 CNS) [µM] | TGI (HOP-62 NSCLC) [µM] | TGI (A498 renal) [µM] | GI50 (MOLT-4 leukemia) [µM] | GI50 (A549 NSCLC) [µM] | GI50 (OVCAR-8 ovarian) [µM] | GI50 (SNB-19 CNS) [µM] | GI50 (MCF7 breast) [µM] | GI50 (IGROV1 ovarian) [µM] | GI50 (A498 renal) [µM] | GI50 (SF-539 CNS) [µM] | GI50 (HOP-62 NSCLC) [µM] |
| --- | --- | --- | --- | --- | --- | --- | --- | --- | --- | --- | --- | --- | --- | --- | --- | --- | --- | --- | --- |
| CCOC(=O)C(C(=S)Nc1ccccc1)c1nn2c(=O)cc(C)nc2s1 (configuration not stated) | 69.1 | > 100 | 51 | > 100 | 70 | 37.8 | > 100 | 86.6 | > 100 |  |  |  |  |  |  |  |  |  |  |
| COc1ccc(/C=C2\N=C(c3ccccc3)N(N=C3NC(=O)CC(=O)N3)C2=O)cc1 | > 100 | > 100 | > 100 | > 100 | > 100 | > 100 | > 100 | > 100 | > 100 | > 100 |  |  |  |  |  |  |  |  |  |
| O=c1oc2cc(O)ccc2c(O)c1C(c1cccnc1)c1c(O)c2ccc(O)cc2oc1=O | > 100 | > 100 | > 100 | > 100 | > 100 | > 100 | > 100 | > 100 | > 100 | > 100 |  |  |  |  |  |  |  |  |  |
| N=C(N)SCc1ccc(Cl)cc1Cl (tested in a mixture with another compound) | 35.4 | > 69.6 | > 100 | 47.6 | 23.1 | 28.5 | 42.9 | 31.9 | 30.2 | 27.5 |  |  |  |  |  |  |  |  |  |
| Cc1ccc(-n2[nH]nc(C#N)c2=O)cc1 | > 100 | > 100 | > 100 | > 100 | > 100 | > 100 | > 100 |  | > 100 |  |  |  |  |  |  |  |  |  |  |
| COCOc1c(C(O[Si](C)(C)C(C)(C)C)c2cnc(Sc3ccccc3)n2C)ccc(OC)c1OC (configuration not stated) | 8.95 | 4.33 | 2.74 | 6.27 | 3.32 | 3.8 | 5.01 | 3.71 | 3.61 |  |  |  |  |  |  |  |  |  |  |
| Nc1[nH]c(=S)nc2snnc12 | > 100 | > 100 | > 100 | > 100 | > 100 | > 100 | > 100 | > 100 | > 100 | > 100 |  |  |  |  |  |  |  |  |  |
| CC1OC(O[C@H]2C3C=CO[C@@H](OC4OC(CO)C(O)C(O)C4O)C3[C@@]3(COC(=O)/C=C/c4ccc(O)cc4)O[C@@H]23)C(O)C(O)C1O (some centres not stated) | > 100 | > 100 | > 100 | > 100 | > 100 | > 100 | > 100 |  | > 100 | > 100 |  |  |  |  |  |  |  |  |  |
| N#CCCC1(CCC#N)CCCCCCCCC(CCC#N)(CCC#N)C(=O)C1=O |  | > 100 | > 100 | > 100 |  | > 100 |  | > 100 | > 100 |  |  |  |  |  |  |  |  |  |  |
| Cn1c2ccccc2c2c(=O)[nH]c(=O)[nH]c21 | > 100 | > 100 | > 100 | > 100 | > 100 | > 100 | > 100 | > 100 | > 100 | > 100 |  |  |  |  |  |  |  |  |  |
| COC(=O)c1ccc(C)cc1/C=C1\Cc2ccc(C)cc2C1=O | > 100 | 98.4 | 59 | 68.7 | 26.3 | 40.6 | 45.8 | 28.3 | 39.5 | 47.9 |  |  |  |  |  |  |  |  |  |
| CC(=O)OC(CCC1(C)OC1COc1ccc(CCNC(=O)c2ccccc2)cc1)C(C)(C)OC(C)=O (configuration not stated) | > 100 | > 100 | 41.4 |  | > 100 |  | > 100 | > 100 | > 100 |  |  |  |  |  |  |  |  |  |  |
| COc1ccc(/C=c2\sc3n(c2=O)C(N)=C(C#N)C(c2ccc(OC)cc2)C=3c2nc3ccccc3[nH]2)cc1 (configuration not stated) | > 100 | > 100 |  | > 100 | > 100 |  | > 100 |  | > 100 | > 100 |  |  |  |  |  |  |  |  |  |
| COC(=O)C1CCC(=O)N1C(c1ccc(OC)cc1)c1ccc(OC)cc1 (configuration not stated) | > 100 | > 100 | > 100 | > 100 | > 100 | > 100 | > 100 | > 100 | > 100 | > 100 |  |  |  |  |  |  |  |  |  |
| CC(C)(C)c1cc(C2=NN(c3ccccc3)C(c3ccccc3)C2)cc(C(C)(C)C)c1O (configuration not stated) | > 100 | > 100 | > 100 | > 100 | > 100 | > 100 | > 100 | > 100 | > 100 | > 100 |  |  |  |  |  |  |  |  |  |
| Cc1cc(NC[C@H](O)[C@H](O)[C@H](O)CO)c(Sc2cc(=O)[nH]c(=O)[nH]2)cc1C | > 62.5 | > 62.5 | > 62.5 | > 62.5 | > 62.5 | > 62.5 | > 62.5 |  | > 62.5 | > 62.5 |  |  |  |  |  |  |  |  |  |
| CSCCCNC(=O)c1csc(-c2csc(C(CNC(=O)OC(C)(C)C)CNC(=O)OC(C)(C)C)n2)n1 | 43.9 |  | > 100 | > 100 | > 100 | > 100 | > 100 | > 100 | > 100 | > 100 |  |  |  |  |  |  |  |  |  |
| CCOC(=O)C1OC(C2(C)OC3(OC4(C=CC3O)OC(C(C)C(=O)C(C)C(O)C(C)CC(C)c3c(Cl)cc(C)c(O)c3C(=O)O)C(C)CC4C)C(C)C2OC)CC1O (configuration not stated) |  | 7.27 | 13.3 |  | 3.95 | 23.1 | 16.5 | 7.51 | 0.483 | 2.51 |  |  |  |  |  |  |  |  |  |
| CCOC(=O)C(Cl)(NC(=O)c1c(F)c(F)c(F)c(F)c1F)C(F)(F)F (configuration not stated) | > 100 | > 100 | > 100 | > 100 | > 100 | > 100 | > 100 | > 100 | > 100 |  |  |  |  |  |  |  |  |  |  |
| O=C1/C(=C/c2ccc(Cl)cc2)N=C(c2ccccc2)N1CCc1cccs1 | > 100 | > 100 | > 100 | > 100 |  | > 100 | > 100 | > 100 | > 100 | > 100 | 16.5 | 31.4 | 43.8 | 29.4 | 18.4 | 36.7 | 16.7 | 48.2 | 47.3 |
| CC(C)(C)OC(=O)NCCCCC(NC(=O)OCC1c2ccccc2-c2ccccc21)C(=O)N1CCCC1C(=O)NCC(N)=O (stereo not drawn) (Fmoc-Lys(Boc)-Pro-Gly-NH2; configuration not given here) | 77.3 | > 100 | > 100 | > 100 | 29.1 | > 100 | > 100 | > 100 | > 100 |  |  |  |  |  |  |  |  |  |  |
